Test: Solvolytic stability of compound was measured relative to p-hydroxyphenethyl bromide
Format: functional, Rattus norvegicus

SMILES | 1/krel
C[C@]12CC[C@@H]3c4ccc(O)cc4CC[C@H]3[C@@H]1C[C@@H](Br)[C@@H]2O | 1276
C[C@]12CC[C@@H]3c4ccc(O)cc4CC[C@H]3[C@@H]1C[C@@H](CBr)C2O (some centres not stated) | 451

Reference: ChEMBL document CHEMBL1121966, “(2R*,3S*)-1-[125I]Iodo-2,3-bis(4-hydroxyphenyl)pentane ([125I]iodonorhexestrol) and (2R*,3S*)-1-[77Br]Bromo-2,3-bis(4-hydroxyphenyl)pentane ([77Br]bromonorhexestrol), two gamma-emitting estrogens that show receptor-mediated uptake by target tissues in vivo” (1982)
